Source: ChEMBL document CHEMBL1201862, “PubChem BioAssay data set” (2004)
The source made the active and inactive calls.

What was measured:
[1] = A Cell Based Secondary Assay To Explore Cytotoxicity of Compounds that Sensitize Mycobacterium Tuberculosis to Beta-Lactam Antibiotics.; assay type: functional
Cytochrome P450 2C9 = Cytochrome P450 2C9 (Homo sapiens, UniProt P11712); conditions: Potency
Cytochrome P450 3A4 = Cytochrome P450 3A4 (Homo sapiens, UniProt P08684); conditions: Potency;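 also: confirmatory qHTS run detecting inhibitors and substrates of CYP3A4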
Chain of Cytochrome P450 3A4 (P08684 whole entry): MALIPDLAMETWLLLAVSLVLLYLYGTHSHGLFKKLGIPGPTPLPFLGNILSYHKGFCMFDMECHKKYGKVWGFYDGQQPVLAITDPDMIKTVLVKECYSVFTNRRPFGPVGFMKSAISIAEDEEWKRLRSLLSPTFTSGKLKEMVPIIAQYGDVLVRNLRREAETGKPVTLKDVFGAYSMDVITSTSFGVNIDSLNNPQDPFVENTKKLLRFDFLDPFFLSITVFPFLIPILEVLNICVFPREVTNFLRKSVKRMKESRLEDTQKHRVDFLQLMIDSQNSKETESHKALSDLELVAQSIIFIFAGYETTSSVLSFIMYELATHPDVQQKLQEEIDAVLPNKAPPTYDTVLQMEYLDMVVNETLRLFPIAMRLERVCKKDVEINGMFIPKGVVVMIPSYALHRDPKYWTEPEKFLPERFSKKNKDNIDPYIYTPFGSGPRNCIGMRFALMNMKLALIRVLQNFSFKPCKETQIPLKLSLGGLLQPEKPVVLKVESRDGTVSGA

Cytochrome P450 2D6 = Cytochrome P450 2D6 (Homo sapiens, UniProt P10635); experiment: qHTS Assay for Inhibitors and Substrates of Cytochrome P450 2D6. [Related pubchem assays: 410 ]; assay type: ADME; conditions: read-out: Potency
[2] = Counterscreen for IDE inhibitors: Luminescence-based cell-based high throughput dose response assay to identify compounds that are cytotoxic to HEK cells. [Related pubchem assays: 434962 (Primary screen (IDE inhibitors in singlicate)), 449730 (Counterscreen (Cytotoxicity in triplicate)), 435028 (Confirmation (IDE inhibitors in triplicate)) …; assay type: functional; conditions: HEK293
Insulin-degrading enzyme = target: T1, Insulin-degrading enzyme (Homo sapiens, UniProt P14735); experiment: Dose Response: Fluorescence polarization-based cell-based high throughput dose response assay for inhibitors of insulin-degrading enzyme (IDE). [Related pubchem assays: 434962 (Primary screen (IDE inhibitors in singlicate)), 449730 (Counterscreen (Cytotoxicity in triplicate)), 435028 (Confirmation (IDE inhibitors in triplicate)), 434984 (Summary …; assay type: functional
T1 sequence (P14735 whole entry): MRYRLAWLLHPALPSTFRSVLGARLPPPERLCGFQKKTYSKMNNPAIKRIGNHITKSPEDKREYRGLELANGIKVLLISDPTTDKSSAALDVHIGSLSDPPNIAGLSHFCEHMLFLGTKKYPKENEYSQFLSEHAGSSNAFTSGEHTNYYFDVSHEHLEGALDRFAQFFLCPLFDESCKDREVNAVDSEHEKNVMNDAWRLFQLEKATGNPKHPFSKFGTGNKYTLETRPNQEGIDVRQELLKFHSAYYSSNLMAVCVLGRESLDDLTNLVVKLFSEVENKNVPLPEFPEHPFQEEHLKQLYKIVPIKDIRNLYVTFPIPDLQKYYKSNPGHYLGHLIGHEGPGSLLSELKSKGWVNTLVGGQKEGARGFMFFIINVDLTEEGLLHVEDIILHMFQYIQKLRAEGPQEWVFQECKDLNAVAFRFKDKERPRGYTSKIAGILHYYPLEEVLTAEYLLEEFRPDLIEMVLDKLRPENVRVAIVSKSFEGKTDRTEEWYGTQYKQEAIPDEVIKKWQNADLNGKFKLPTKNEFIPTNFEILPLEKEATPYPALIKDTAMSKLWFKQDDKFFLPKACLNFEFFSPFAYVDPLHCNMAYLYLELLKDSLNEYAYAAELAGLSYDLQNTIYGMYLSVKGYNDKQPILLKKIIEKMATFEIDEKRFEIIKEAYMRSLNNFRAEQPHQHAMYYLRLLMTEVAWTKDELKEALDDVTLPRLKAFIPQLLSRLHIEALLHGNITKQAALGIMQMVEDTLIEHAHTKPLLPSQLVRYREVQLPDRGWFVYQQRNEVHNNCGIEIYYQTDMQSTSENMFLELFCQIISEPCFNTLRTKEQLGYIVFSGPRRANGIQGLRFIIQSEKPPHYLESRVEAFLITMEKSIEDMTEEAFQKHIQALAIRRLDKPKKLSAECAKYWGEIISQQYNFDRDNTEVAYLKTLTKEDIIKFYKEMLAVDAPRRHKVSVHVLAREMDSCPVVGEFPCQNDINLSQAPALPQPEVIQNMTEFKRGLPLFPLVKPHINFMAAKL

Leucine aminopeptidase = target: T2, Leucine aminopeptidase (Plasmodium falciparum 3D7, UniProt Q8IL11); experiment: P. falciparum M17LAP inhibitors, primary screen, biochemical, fluorogenic H-Leu-NHMec substrate, 1536-well (AID 1619); assay type: functional
T2 sequence (Q8IL11 whole entry): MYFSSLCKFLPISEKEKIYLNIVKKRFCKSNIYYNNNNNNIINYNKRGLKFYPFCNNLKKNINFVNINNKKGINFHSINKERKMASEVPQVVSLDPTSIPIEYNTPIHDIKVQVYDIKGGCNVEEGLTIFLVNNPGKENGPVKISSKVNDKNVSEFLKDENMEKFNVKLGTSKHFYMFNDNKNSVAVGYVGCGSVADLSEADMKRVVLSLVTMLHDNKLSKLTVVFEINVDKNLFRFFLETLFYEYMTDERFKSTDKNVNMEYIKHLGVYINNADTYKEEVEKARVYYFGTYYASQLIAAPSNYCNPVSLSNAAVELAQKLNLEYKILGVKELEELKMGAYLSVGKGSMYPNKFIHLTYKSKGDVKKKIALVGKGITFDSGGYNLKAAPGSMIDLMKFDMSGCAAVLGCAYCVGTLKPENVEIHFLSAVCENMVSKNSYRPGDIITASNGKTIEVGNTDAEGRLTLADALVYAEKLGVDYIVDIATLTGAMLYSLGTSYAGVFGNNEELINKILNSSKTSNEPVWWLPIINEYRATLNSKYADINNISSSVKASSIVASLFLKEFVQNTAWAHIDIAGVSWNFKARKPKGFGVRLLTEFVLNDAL

[3] = enhancers of respiration in Yfh1-depleted yeast, dose response, Friedreich's ataxia, plus single-dose screen (AID 1465); assay type: functional;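 also: yeast depleted of Yfh1p frataxin homolog grown on glycerol needing respiration; WST-1 tetrazolium dye reduction as measure of cellular dehydrogenase metabolic activity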
[4] = target: Eukaryotic translation initiation factor 4H (Homo sapiens, UniProt Q15056); experiment: human eIF4H binding inhibitors, primary screen, translation initiation inhibitor project, biochemical, uHTS, fluorescence polarization (AID 2012)
[5] = target: T3, Long-chain-fatty-acid--AMP ligase FadD28 (Mycobacterium tuberculosis, UniProt P9WQ59); experiment: Fluorescence polarization aasay to screen for inhibitors that compete for the binding of FadD28 to a bisubstrate Measured in Biochemical System Using Plate Reader - 2147-01_Inhibitor_Dose_CherryPick_Activity.; assay type: functional, Mycobacterium tuberculosis H37Rv
T3 sequence (P9WQ59 whole entry): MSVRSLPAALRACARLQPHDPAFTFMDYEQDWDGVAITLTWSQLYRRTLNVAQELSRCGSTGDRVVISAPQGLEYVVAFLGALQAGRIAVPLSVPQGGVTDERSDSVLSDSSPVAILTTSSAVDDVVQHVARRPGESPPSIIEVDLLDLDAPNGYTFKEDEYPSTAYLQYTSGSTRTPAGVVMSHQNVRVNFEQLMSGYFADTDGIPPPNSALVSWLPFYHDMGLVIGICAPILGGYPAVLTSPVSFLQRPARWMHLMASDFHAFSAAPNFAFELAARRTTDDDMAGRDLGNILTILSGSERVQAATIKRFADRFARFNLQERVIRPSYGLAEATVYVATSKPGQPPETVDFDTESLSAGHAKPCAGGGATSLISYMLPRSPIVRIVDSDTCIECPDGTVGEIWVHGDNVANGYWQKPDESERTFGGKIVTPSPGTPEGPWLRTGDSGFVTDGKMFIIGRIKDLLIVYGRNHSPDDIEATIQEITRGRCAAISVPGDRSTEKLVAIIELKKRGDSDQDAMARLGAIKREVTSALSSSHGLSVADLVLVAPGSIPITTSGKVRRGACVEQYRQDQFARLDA

[6] = target: T4, Voltage-gated N-type calcium channel alpha-1B subunit/Amyloid beta A4 precursor protein-binding family A member 1 (Homo sapiens, UniProt Q00975+Q02410); assay type: protein assay
T4 sequence (Q00975 whole entry): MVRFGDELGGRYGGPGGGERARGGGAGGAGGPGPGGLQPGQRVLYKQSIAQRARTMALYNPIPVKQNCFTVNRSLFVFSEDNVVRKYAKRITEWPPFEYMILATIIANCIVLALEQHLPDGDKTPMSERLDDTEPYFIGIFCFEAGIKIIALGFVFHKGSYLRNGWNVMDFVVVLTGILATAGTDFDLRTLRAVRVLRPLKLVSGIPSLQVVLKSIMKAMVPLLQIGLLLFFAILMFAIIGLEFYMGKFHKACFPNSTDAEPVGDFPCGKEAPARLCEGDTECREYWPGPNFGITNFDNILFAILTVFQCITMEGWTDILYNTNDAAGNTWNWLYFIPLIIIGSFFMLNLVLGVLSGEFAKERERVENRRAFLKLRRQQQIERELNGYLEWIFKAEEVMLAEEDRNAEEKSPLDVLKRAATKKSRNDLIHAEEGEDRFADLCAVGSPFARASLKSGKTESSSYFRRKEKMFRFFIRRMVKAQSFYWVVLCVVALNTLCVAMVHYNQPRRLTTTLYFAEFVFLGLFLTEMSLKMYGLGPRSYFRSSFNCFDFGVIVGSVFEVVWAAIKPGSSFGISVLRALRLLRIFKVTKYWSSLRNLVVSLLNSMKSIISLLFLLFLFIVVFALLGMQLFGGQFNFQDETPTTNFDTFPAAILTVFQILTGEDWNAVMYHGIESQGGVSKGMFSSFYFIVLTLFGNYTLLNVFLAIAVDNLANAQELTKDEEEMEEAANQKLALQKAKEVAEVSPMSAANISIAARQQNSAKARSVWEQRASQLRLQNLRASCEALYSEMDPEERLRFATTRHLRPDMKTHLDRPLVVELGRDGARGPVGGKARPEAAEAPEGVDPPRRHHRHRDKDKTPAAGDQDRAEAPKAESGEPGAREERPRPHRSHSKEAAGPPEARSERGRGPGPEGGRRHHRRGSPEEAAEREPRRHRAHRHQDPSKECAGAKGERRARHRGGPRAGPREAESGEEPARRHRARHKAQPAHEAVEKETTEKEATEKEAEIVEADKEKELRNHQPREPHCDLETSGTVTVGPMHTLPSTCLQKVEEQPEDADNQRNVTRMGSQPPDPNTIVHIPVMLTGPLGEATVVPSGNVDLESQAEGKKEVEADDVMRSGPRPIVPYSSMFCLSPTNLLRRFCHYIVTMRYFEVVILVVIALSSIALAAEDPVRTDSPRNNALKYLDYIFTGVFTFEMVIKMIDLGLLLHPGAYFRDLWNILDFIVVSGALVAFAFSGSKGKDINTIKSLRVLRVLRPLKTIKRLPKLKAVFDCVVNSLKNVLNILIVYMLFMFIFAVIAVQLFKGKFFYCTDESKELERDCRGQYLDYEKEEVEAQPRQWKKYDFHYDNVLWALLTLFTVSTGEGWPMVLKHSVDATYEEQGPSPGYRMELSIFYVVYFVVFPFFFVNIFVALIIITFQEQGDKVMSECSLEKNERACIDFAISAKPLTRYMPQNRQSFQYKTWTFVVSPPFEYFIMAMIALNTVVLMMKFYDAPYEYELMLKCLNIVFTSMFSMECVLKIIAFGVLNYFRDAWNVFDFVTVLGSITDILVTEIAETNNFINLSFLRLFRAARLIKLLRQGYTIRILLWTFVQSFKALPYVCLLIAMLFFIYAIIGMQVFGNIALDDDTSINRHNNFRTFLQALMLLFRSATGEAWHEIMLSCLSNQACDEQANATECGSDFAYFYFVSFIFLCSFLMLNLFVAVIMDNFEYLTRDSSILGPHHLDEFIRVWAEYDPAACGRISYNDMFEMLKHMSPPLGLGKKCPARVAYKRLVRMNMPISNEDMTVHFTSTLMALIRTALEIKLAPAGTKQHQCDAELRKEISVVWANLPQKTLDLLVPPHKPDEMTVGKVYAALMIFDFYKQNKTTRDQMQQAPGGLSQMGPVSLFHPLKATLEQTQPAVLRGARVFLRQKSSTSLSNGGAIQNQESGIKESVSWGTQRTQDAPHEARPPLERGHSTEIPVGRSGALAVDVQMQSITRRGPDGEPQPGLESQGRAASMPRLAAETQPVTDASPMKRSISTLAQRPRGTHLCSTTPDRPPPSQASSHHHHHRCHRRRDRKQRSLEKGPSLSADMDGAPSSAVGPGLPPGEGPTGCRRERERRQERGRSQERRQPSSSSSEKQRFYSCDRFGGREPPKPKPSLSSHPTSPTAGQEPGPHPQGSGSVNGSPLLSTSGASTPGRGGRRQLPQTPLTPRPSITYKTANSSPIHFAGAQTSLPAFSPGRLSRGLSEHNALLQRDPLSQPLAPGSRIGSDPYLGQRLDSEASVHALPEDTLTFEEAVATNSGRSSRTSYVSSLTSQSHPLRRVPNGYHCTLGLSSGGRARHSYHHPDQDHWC
T4 sequence (Q02410 whole entry): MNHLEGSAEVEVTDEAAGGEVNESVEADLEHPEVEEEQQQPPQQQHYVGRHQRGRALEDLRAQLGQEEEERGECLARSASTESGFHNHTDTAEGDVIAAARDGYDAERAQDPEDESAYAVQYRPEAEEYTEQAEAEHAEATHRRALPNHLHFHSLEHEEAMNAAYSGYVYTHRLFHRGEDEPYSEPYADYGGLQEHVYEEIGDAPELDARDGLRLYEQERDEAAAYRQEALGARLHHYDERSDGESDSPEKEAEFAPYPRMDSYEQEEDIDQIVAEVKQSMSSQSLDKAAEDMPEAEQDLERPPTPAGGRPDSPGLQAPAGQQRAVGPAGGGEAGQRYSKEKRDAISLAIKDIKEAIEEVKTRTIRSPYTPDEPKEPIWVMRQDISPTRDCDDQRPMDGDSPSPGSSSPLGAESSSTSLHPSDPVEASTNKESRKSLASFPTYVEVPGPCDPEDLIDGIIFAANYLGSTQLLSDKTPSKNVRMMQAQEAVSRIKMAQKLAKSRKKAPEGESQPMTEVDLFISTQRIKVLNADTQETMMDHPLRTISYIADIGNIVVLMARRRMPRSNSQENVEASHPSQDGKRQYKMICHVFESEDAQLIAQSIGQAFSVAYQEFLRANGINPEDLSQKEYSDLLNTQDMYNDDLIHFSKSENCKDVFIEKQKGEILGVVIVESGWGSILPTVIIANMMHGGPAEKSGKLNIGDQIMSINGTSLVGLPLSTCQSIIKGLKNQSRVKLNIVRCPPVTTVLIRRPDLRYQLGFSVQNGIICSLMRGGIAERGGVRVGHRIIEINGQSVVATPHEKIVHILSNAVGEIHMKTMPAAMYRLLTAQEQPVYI

[7] = NIH-3T3 fibroblast cytotoxicity, dose response, cytotoxicity control, cell-based, fluorescence, Alamar Blue, secondary assay (AID 2327); assay type: functional;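 also: NIH-3T3 mouse fibroblasts cultured with fluconazole at 8 µg/mL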
[8] = target: T4, Voltage-gated N-type calcium channel alpha-1B subunit/Amyloid beta A4 precursor protein-binding family A member 1; assay type: protein assay; remark: listed apart in the source
[9] = C. albicans growth with fluconazole, confirmation, fluorescence, retest (AID 2467); assay type: functional, cell-based
[10] = target: Polyadenylate-binding protein 1 (Homo sapiens, UniProt P11940); experiment: PABP poly(A) RNA binding inhibitors, primary screen, biochemical, fluorescence polarization, uHTS (AID 2014)
[11] = target: Neurotensin receptor type 1 (Homo sapiens, UniProt P30989); assay type: functional;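 also: Image-based confirmatory dose-response assay measuring agonist activity at NTR1; NTR1-expressing U2OS osteosarcoma cells imaged for beta-arrestin GFP spot formation; agonist potency where compounds increase beta-arrestin recruitment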
Chain of Neurotensin receptor type 1 (P30989 whole entry): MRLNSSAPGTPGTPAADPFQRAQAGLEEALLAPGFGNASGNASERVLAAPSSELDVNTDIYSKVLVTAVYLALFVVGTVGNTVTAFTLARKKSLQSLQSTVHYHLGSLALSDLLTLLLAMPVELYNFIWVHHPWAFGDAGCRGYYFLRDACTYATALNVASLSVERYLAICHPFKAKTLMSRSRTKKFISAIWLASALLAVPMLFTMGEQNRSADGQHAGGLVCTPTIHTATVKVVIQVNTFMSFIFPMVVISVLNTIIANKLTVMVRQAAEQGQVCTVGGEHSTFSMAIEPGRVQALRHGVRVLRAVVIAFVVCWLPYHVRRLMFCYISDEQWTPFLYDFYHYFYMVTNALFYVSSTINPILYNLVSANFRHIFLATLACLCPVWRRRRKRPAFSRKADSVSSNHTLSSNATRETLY

[12] = target: T5, Corticotropin-releasing factor receptor 2/Corticotropin-releasing factor-binding protein (Homo sapiens, UniProt P24387+Q13324); experiment: activators of CRF receptor 2 with binding protein – uHTS hits, confirmation (AID 602473); assay type: functional; conditions: read-out: EC50_Mean
T5 sequence (Q13324 whole entry): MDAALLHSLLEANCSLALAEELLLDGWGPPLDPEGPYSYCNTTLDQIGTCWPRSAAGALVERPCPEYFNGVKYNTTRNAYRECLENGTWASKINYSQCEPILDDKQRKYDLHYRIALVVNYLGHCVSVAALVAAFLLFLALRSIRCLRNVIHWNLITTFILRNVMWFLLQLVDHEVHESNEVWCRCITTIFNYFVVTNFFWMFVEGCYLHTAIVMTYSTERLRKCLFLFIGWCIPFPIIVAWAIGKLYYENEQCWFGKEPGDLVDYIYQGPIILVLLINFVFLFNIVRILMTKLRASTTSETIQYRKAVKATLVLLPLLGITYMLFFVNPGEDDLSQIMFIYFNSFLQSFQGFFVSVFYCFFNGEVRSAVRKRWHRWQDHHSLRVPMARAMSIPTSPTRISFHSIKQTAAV
T5 sequence (P24387 whole entry): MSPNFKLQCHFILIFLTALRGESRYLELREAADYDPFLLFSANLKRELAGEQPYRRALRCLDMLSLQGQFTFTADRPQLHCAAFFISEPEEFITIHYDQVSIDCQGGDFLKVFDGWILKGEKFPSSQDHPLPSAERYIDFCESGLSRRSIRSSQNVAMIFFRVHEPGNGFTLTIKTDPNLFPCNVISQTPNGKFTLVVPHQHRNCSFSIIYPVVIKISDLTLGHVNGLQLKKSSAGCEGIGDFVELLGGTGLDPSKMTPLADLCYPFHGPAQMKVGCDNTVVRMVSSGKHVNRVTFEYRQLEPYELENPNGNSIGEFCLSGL

Hexokinase = Hexokinase (Trypanosoma brucei, UniProt Q38C41); experiment: Confirmation assay for inhibitors of Trypanosoma brucei hexokinase 1-Analogue-first series. [Related pubchem assays (depositor defined):AID1430, AID1632, AID2516, AID2560, AID2579, AID2600, AID449725, AID492951]; assay type: functional

Chain of Cytochrome P450 2C9 (P11712 whole entry): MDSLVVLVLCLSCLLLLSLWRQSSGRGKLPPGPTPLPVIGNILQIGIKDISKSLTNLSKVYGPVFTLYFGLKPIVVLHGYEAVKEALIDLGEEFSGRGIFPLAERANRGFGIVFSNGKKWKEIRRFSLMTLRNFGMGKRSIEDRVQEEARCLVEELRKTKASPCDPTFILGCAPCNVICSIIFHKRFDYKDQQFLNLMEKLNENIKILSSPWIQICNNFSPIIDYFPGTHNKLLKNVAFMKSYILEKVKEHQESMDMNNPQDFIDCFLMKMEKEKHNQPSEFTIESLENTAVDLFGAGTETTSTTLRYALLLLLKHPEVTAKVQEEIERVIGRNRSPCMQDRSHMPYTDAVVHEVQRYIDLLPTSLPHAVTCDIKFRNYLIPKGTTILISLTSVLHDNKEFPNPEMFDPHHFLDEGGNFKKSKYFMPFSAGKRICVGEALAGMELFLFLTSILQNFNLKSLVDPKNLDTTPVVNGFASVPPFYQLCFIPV

For `CCOC(=O)c1sc(Nc2nc3c(OC)cccc3s2)cc1C`, the CC50 [1] was > 40 µM (active).
With `Nc1c(S(=O)(=O)O)cc(Nc2ccc(Nc3nc(Cl)nc(Nc4ccc(S(=O)(=O)O)cc4)n3)c(S(=O)(=O)O)c2)c2c1C(=O)c1ccccc1C2=O` the AC50 (Cytochrome P450 2C9) was 39.8 µM (inconclusive), the AC50 (Cytochrome P450 3A4) was 25.1 µM (inconclusive) and the AC50 (Cytochrome P450 2D6) was 39.8 µM (inconclusive).
For `CCN(CC)c1ccc(/C=C(/C#N)C(=O)NC(C)C)o1`, the IC50 [2] was > 55.7 µM (not active), the IC50 (Insulin-degrading enzyme) was 13.2 µM (not active) and the IC50 (Leucine aminopeptidase) was 65.8 µM (active). For the same molecule, the EC50 [3] was > 100 µM (active).
For `NC(=S)n1[nH]c(-c2ccc([N+](=O)[O-])cc2)c(/N=N/c2cccc([N+](=O)[O-])c2)c1=O`, the IC50 [4] was 2.66 µM (active), the AC50 [5] was 15.5 µM (active) and the IC50 [6] was 4 µM (active). For the same molecule, the EC50 [7] was > 150 µM (inactive), the IC50 [8] was > 50 µM (inactive) and the EC50 [9] was 11.6 µM (active). For the same molecule, the IC50 [10] was 42.5 µM (active).
With `CC1(C)CC(=O)C(=Cc2cn(-c3ccccc3)nc2-c2ccc(Cl)cc2)C(=O)C1` the EC50 [11] was 35.3 µM (inactive) and the EC50 [12] was > 53 µM (inactive).
With `COc1ccc(C(=O)NC(CC(=O)O)c2ccccc2)cc1` (stereo not drawn) the IC50 (Hexokinase) was > 25 µM (inactive).
